# Assay results as given in ChEMBL document CHEMBL2157933, “The synthesis and antituberculosis activity of 5'-nor carbocyclic uracil derivatives” (Bioorg Med Chem, 2012).
# Legend:
# Type in all cases: functional
# [1] = test system: Mycobacterium tuberculosis; assay: Antibacterial activity against multidrug-resistant Mycobacterium tuberculosis MS-115 under anaerobic condition assessed as growth inhibition at 10 to 20 ug/ml by BACTEC method
# [2] = test system: Mycobacterium tuberculosis; assay: Antibacterial activity against multidrug-resistant Mycobacterium tuberculosis MS-115 under anaerobic condition assessed as growth inhibition at 10 ug/ml by BACTEC method; settings: read-out: GI
# [3] = test system: Mycobacterium tuberculosis; assay: Antibacterial activity against multidrug-resistant Mycobacterium tuberculosis MS-115 under anaerobic condition assessed as growth inhibition at 20 ug/ml by BACTEC method; settings: read-out: GI
# [4] = test system: Mycobacterium tuberculosis; assay: Antibacterial activity against multidrug-resistant Mycobacterium tuberculosis MS-115 under anaerobic condition by BACTEC method
# [5] = test system: Mycobacterium tuberculosis; assay: Antibacterial activity against multidrug-resistant Mycobacterium tuberculosis MS-115 under anaerobic condition assessed as growth inhibition at 5 ug/ml by BACTEC method; settings: read-out: GI
# [6] = test system: Mycobacterium tuberculosis; assay: Antibacterial activity against multidrug-resistant Mycobacterium tuberculosis MS-115 under anaerobic condition assessed as growth inhibition at 0.1 ug/ml by BACTEC method; settings: read-out: GI
# [7] = test system: Mycobacterium tuberculosis; assay: Antibacterial activity against multidrug-resistant Mycobacterium tuberculosis MS-115 under anaerobic condition assessed as growth inhibition at 2 ug/ml by BACTEC method; settings: read-out: GI
# [8] = test system: Mycobacterium tuberculosis; assay: Antibacterial activity against multidrug-resistant Mycobacterium tuberculosis MS-115 under anaerobic condition assessed as growth inhibition at 100 ug/ml by BACTEC method; settings: read-out: GI
# [9] = test system: Mycobacterium tuberculosis; assay: Antibacterial activity against multidrug-resistant Mycobacterium tuberculosis MS-115 under anaerobic condition assessed as growth inhibition at 1 ug/ml by BACTEC method; settings: read-out: GI
smiles,measurement,setting,value
CCCCCCCCCCCCC#Cc1cn(C2C=CC(O)C2)c(=O)[nH]c1=O (racemic),growth inhibition (GI),[1],100%
"CCCCCCCCCCCCC#Cc1cn(C2C=CC(O)C2)c(=O)[nH]c1=O (single isomer, unassigned; (-))",inhibition of growth at 10 µg/mL,[2],99%
same,inhibition of growth at 20 µg/mL,[3],100%
same,MIC99,[4],10 mg/L
CC[C@@H](CO)NCCN[C@@H](CC)CO [ETHAMBUTOL],inhibition of growth at 5 µg/mL,[5],0%
NNC(=O)c1ccncc1 [ISONIAZID],inhibition of growth at 0.1 µg/mL,[6],0%
CC1COc2c(N3CCN(C)CC3)c(F)cc3c(=O)c(C(=O)O)cn1c23 (stereo unspecified) [OFLOXACIN],MIC99,[4],2 mg/L
same,inhibition of growth at 2 µg/mL,[7],100%
NC(=O)c1cnccn1 [PYRAZINAMIDE],inhibition of growth at 100 µg/mL,[8],0%
CO[C@H]1/C=C/O[C@@]2(C)Oc3c(C)c(O)c4c(O)c(c(/C=N/N5CCN(C)CC5)c(O)c4c3C2=O)NC(=O)/C(C)=C\C=C\[C@H](C)[C@H](O)[C@@H](C)[C@@H](O)[C@@H](C)[C@H](OC(C)=O)[C@@H]1C [RIFAMPIN],inhibition of growth at 1 µg/mL,[9],0%
CN[C@@H]1[C@H](O[C@H]2[C@H](O[C@H]3[C@H](O)[C@@H](O)[C@H](N=C(N)N)[C@@H](O)[C@@H]3N=C(N)N)O[C@@H](C)[C@]2(O)C=O)O[C@@H](CO)[C@H](O)[C@H]1O [STREPTOMYCIN],inhibition of growth at 0.1 µg/mL,[6],0%
